Experiments:
SKBR3 cells = assay: Growth inhibitory and cytotoxicity assay in SKBR3 cells under normoxia; format: cell-based, human
Experimental: Cytotoxicity assay and Rapid DNA Content Analysis. Cells were incubated for 24 hr at 37° C. in 5% CO2 at which time drug treatments began and were continued for 72 hr. At this time, attached cells were trypsinized and combined with their respective culture media followed by centrifugation at 400 g for 5 min. Pellets containing the cells were either resuspended in 1.5 ml of a medium/trypan blue mixture for cytotoxicity assays or propidium iodide/hypotonic citrate staining solution for determining the nuclear DNA content and cell cycle by a Coulter XL flow cytometer. A minimum of 10,000 cells were analyzed to generate a DNA distribution histogram.
(§1) Cytotoxicity assay. Cells were incubated for 24 hr at 37° C. in 5% CO2 at which time drug treatments began and continued for 72 hr. At this time, attached cells were trypsinized and combined with their respective culture media followed by centrifugation at 400 g for 5 min. The pellets were resuspended in 1 ml of Hanks solution and analyzed by Vi-Cell (Beckman Coulter, USA) cell viability analyzer.

[1] = system: S-1 & S-2, non-small cell lung cancer; assay: Cytotoxicity under normoxia, NSCLC; format: cell-based, human; details: normoxic conditions
Experimental: (§2) Cell types. The Δ^0 cells were isolated by treating osteosarcoma cell line 143B (wt) with ethidium bromide for prolonged periods, as previously described (9). Because the Δ^0 cells are uridine and pyruvate auxotrophs, they were grown in DMEM (GIBCO, USA) supplemented with 10% fetal calf serum, 50 μg/ml of uridine and 100 mM sodium pyruvate. The SKBR3 cell line was obtained from Dr. Joseph Rosenblatt's laboratory at the University of Miami. The pancreatic cancer cell lines 1420 and 1469, the ovarian cancer cell line SKOV3, the cervical cancer cell line HELA, and the osteosarcoma cell line 143B were purchased from ATCC. The non-small cell lung cancer and small cell lung cancer cell lines were derived from patients by Dr. Niramol Savaraj at the University of Miami. SKBR3 and SKOV3 cells were grown in McCoy's 5A medium; 1420, 1469 and 143B were grown in DMEM (GIBCO, USA); and HELA was grown in MEM (GIBCO, USA). The media was supplemented with 10% fetal bovine serum. All cells were grown under 5% CO2 and 37° C. Cytotoxicity assay. Cells were incubated for 24 hr at 37° C. in 5% CO2 at which time drug treatments began and continued for 72 hr. […] The pellets were resuspended in 1 ml of Hanks solution and analyzed by Vi-Cell (Beckman Coulter, USA) cell viability analyzer.

[2] = system: MDA-MB-468, breast cancer; assay: Cytotoxicity under normoxia, MDA-MB-468; format: cell-based; details: column head gives the result: resistant
Experimental: as §1

1469, pancreatic cancer = assay: Cytotoxicity under normoxia, 1469; format: cell-based; details: column head gives the result: resistant
Experimental: as §2

HEPA-1 = assay: Cytotoxicity under normoxia, HEPA-1; format: cell-based, rat; details: column head gives the result: resistant
Experimental: as §1

HELA, cervical cancer = assay: Cytotoxicity under normoxia, HELA; format: cell-based; details: column head gives the result: sensitive
Experimental: as §2

SKOV3, ovarian cancer = assay: Cytotoxicity under normoxia, SKOV3; format: cell-based; details: column head gives the result: resistant
Experimental: as §2

CHOP/GADD154 = assay: Western blot of CHOP/GADD154 in SKBR3 cells; format: cell-based, human; details: SKBR3, normoxia, 24 hrs; 8 mM sugar analog
Experimental: (§3) Western Blot analysis. Cells were plated at 10^4 cell cm^−2 and grown under drug treatment for the indicated times. At the end of the treatment period, cells were collected and lysed with 1% SDS in 80 mM Tris-HCL (ph 7.4) buffer supplemented with a proteinase inhibitor cocktail. DNA was fragmented by sonication and protein concentrations were measured by microBCA protein assay kit (Pierce, USA). Samples were mixed with 2× Laemmli sample buffer (Bio-Rad, USA) and run on a SDS-polyacrylamide gel. Gels were transferred to nitrocellulose membranes (Amersham, USA) and probed with anti-KDEL (Stressgen, Canada) (for Grp78 and Grp94); polyclonal anti-CHOP/[…] (Santa Cruz, USA), polyclonal anti-erbB2 (DAKO, USA). Following probing, membranes were washed and incubated with an HRP conjugated secondary antibody. Chemiluminesence was detected by exposure to film. Where indicated, membranes were stripped with Stripping Buffer (Pierce, USA) and reprobed with anti-actin (Sigma, USA) primary antibody. To analyze conconavalin A (ConA) binding, the membranes were incubated with 0.2 μg/ml HRP-conjugated ConA, and chemiluminescence was detected as described.

[3] = system: MDA-MB-231, breast cancer; assay: Cytotoxicity under normoxia, MDA-MB-231; format: cell-based; details: column head gives the result: resistant
Experimental: as §1

tumor cell lines = assay: Toxicity survey of tumor cell lines under normoxic conditions; format: cell-based
Experimental: (§4) Cell types. The Δ^0 cells were isolated by treating osteosarcoma cell line 143B (wt) with ethidium bromide for prolonged periods, as previously described (9). Because the Δ^0 cells are uridine and pyruvate auxotrophs, they were grown in DMEM (GIBCO, USA) supplemented with 10% fetal calf serum, 50 μg/ml of uridine and 100 mM sodium pyruvate. The SKBR3 cell line was obtained from Dr. Joseph Rosenblatt's laboratory at the University of Miami. The pancreatic cancer cell lines 1420 and 1469, the ovarian cancer cell line SKOV3, the cervical cancer cell line HELA, and the osteosarcoma cell line 143B were purchased from ATCC. The non-small cell lung cancer and small cell lung cancer cell lines were derived from patients by Dr. Niramol Savaraj at the University of Miami. SKBR3 and SKOV3 cells were grown in McCoy's 5A medium; 1420, 1469 and 143B were grown in DMEM (GIBCO, USA); and HELA was grown in MEM (GIBCO, USA). The media was supplemented with 10% fetal bovine serum. All cells were grown under 5% CO2 and 37° C.
as §1

erbB2 = assay: Western blot of erbB2 in SKBR3 cells; format: cell-based, human
Experimental: as §3

[4] = animal studies and preliminary Phase I results; cited from earlier work
[5] = system: glycoproteins (ConA binding) in SKBR3 cells; assay: HRP-conjugated ConA blot of SKBR3 cell extracts; format: cell-based, human; details: SKBR3, 48 hr, 8 mM sugar analog
Experimental: as §3

MCF-7, breast cancer = assay: Cytotoxicity under normoxia, MCF-7; format: cell-based; details: column head gives the result: resistant
Experimental: as §1

1420, pancreatic cancer = assay: Cytotoxicity under normoxia, 1420; format: cell-based, human; details: column head gives the result: sensitive
Experimental: as §4, §1

fowl plague virus = details: chick embryo fibroblasts infected with fowl plague virus; cited from earlier work
[6] = system: TG98, brain cancer (glioblastoma); assay: Cytotoxicity under normoxia, TG98; format: cell-based; details: column head gives the result: sensitive
Experimental: as §1

143B, osteosarcoma = assay: Cytotoxicity under normoxia, 143B; format: cell-based, human; details: column head gives the result: resistant
Experimental: as §2

Grp78 and Grp94 [7] = assay: Western blot of Grp78 and Grp94 in models of hypoxia A, B & C; format: cell-based
Experimental: as §3
Three in vitro models of hypoxia. We previously characterized three models of anaerobiosis as follows: Model A are tumor cells treated with 0.05 μg/ml of oligomycin (a mitochondrial inhibitor of ATP synthase); Model B are cells that are deficient in mitochondrial DNA and Model C are cells treated in an hypoxic (0.5% O^2) chamber (Reming Bioinstruments, Redfield, N.Y.).

Grp78 and Grp94 [8] = assay: Western blot of Grp78 and Grp94 (unfolded protein response) in SKBR3 cells under normoxia; format: cell-based, human
Experimental: as §3

human tumor xenografts = details: different human tumor xenografts; cited from earlier work

SMILES: O=CC[C@@H](O)[C@H](O)[C@H](O)CO [2-DG, 2-deoxy-D-glucose]
- cells killed (SKBR3 cells; SKBR3, 12 mM, 72 hrs, normoxic conditions): 60%
- cytotoxicity measured by trypan blue exclusion (SKBR3 cells; SKBR3, 72 hrs, normal oxygen conditions): toxic
- 2-DG Sensitive Cell Lines (2-DG under normoxia) (SKBR3 cells; column head gives the result: sensitive): SKBR3, breast cancer
- rank order in growth inhibiting and killing SKBR3 cells (SKBR3 cells; normoxia): 2-DG>2-FDM>>>2-FDG
- toxicity to NSCLC [1]: toxic
- 2-DG Resistant Cell Lines (2-DG under normoxia) [2]: MDA-MB-468, breast cancer
- 2-DG Resistant Cell Lines (2-DG under normoxia) (1469, pancreatic cancer): 1469, pancreatic cancer
- 2-DG Resistant Cell Lines (2-DG under normoxia) (HEPA-1): HEPA-1, rat hepatoma
- 2-DG Sensitive Cell Lines (2-DG under normoxia) (HELA, cervical cancer): HELA, cervical cancer
- 2-DG Resistant Cell Lines (2-DG under normoxia) (SKOV3, ovarian cancer): SKOV3, ovarian cancer
- induction of GADD154/CHOP (CHOP/GADD154): induced
- 2-DG Resistant Cell Lines (2-DG under normoxia) [3]: MDA-MB-231, breast cancer
- tumor cell lines undergoing significant cell death (tumor cell lines; 6 mM, normal oxygen tension): 6 out of 15
- dose at which a select number of tumor cell lines are killed (tumor cell lines; normal oxygen tension): 4 mM
- toxicity to select tumor cell types (tumor cell lines; normoxia): toxic to select tumor cell types growing under normoxia
- molecular weight of erbB2 (erbB2): decreased the molecular weight of erbB2
- tolerability [4]: well-tolerated and relatively non-toxic to normal cells
- ConA binding of glycoproteins [5]: decrease ConA binding
- 2-DG Resistant Cell Lines (2-DG under normoxia) (MCF-7, breast cancer): MCF-7, breast cancer
- 2-DG Sensitive Cell Lines (2-DG under normoxia) (1420, pancreatic cancer): 1420, pancreatic cancer
- order of potency to inhibit viral glycoprotein synthesis (fowl plague virus): 2-DG>2-FDM>2-FDG
- 2-DG Sensitive Cell Lines (2-DG under normoxia) [6]: TG98, brain cancer (glioblastoma)
- 2-DG Resistant Cell Lines (2-DG under normoxia) (143B, osteosarcoma): 143B, osteosarcoma
- upregulation of the UPR (Grp78, Grp94) (Grp78 and Grp94 [7]; hypoxia model C): both chaperones are upregulated
- upregulation of the UPR (Grp78, Grp94) (Grp78 and Grp94 [7]; hypoxia models A and B): no significant upregulation of the UPR
- expression of chaperones Grp78 and Grp94 (Grp78 and Grp94 [8]; SKBR3, normoxia, 24 hrs, 8 mM sugar analog, tunicamycin 1 micro g/ml): both Grp78 and Grp94 are upregulated
- up-regulation of GRP 78 and 94, dose dependence (Grp78 and Grp94 [8]; select tumor cells, normoxic conditions): up-regulated by 2-DG and 2-FM in a dose-dependent manner
- effect on efficacy of standard chemotherapeutic agents (human tumor xenografts): increases the efficacy of standard chemotherapeutic agents

— patent US8242167B2, “Mannose derivatives for killing tumor cells” (University of Miami, priority 2006, dated 2012)
